# Experimental data from article PMC6813295, “A tumour-selective cascade activatable self-detained system for drug delivery and cancer imaging” (Nature Communications, 2019).
# Where a SMILES comes first, the peptide text is derived from it. The star is where a group is joined. X1 = CC1(C)C(=CC=C2CCCC(C=CC3=[N+](CCCCCC(=O)O)c4ccccc4C3(C)C)=C2*)N(CCCCCC(=O)O)c2ccccc21
# Format: physicochemical
# Description: microscopy (UltraVIEW VoX).
# H460 cells (1 x 10^5 cells per well) were seeded in a confocal microscopy dish (MatTek). After culture for 24 h, the cells were treated with P7 (XIAP inhibitor) (50 μM) or […] (caspase inhibitor) (10 μM) for 3 h and followed by PBS washing. And then the molecule 1 (50 μM) and 2 (50 μM) were individually added for 1 h and followed by PBS washing and fresh medium replacement.
# After further 6 h of incubation, the cells were washed twice by PBS and stained with bisBenzimide H 33342 trihydrochloride (Hoechst 33342) (1 mg ml-1; Life Technologies) at 37 °C for 10 min. […]
# [Cy]0 is the initial concentration of the molecule 1 or 4, [Cy]t is the concentration of the molecule 1 or […] after the irradiation of t min. Based on Beer rule, it has the linear relation between the concentration of the molecule 1 or 4 and the absorbance in maximal wavelength for the low concentration cyanine dye. […]
# A0 is the absorbance in maximal wavelength before the irradiation, and At is the absorbance in maximal wavelength after the irradiation. […]
# The pathway of molecule 1 entering cells. […] Subsequently, H460 cells were treated with molecule 1 (50 uM), after 2 h of incubation at 37 ℃ the medium was removed and the cells were washed three times with PBS and analysed by confocal laser scanning […]
compound,measurement,setting,value
CC[C@H](C)[C@H](NC(=O)[C@@H]1CCCN1C(=O)[C@@H](NC(=O)[C@H](C)N)C(C)C)C(=O)N[C@@H](C)C(=O)N[C@@H](CCC(N)=O)C(=O)N[C@@H](CCCCN)C(=O)N[C@@H](CC(=O)O)C(=O)N[C@@H](CCC(=O)O)C(=O)N[C@H](C(=O)N[C@@H](CC(=O)O)C(=O)N[C@@H](CCCCN)C(=O)N[C@@H](CC(C)C)C(=O)N[C@H](C(=O)N[C@@H](Cc1ccccc1)C(=O)N[C@@H](Cc1ccccc1)C(=O)N[C@@H](C)C(=O)N[C@@H](CCC(=O)O)C(=O)N[C@@H](CSC1=C(C=CC2=[N+](CCCCCC(=O)O)c3ccccc3C2(C)C)CCCC1=CC=C1N(CCCCCC(=O)O)c2ccccc2C1(C)C)C(=O)NCC(=O)O)C(C)C)C(C)C [molecule 1] (H-AVPIAQKDEVDKLVFFAEC(X1)G-OH),photobleaching after irradiation for 6 h,"irradiation 6 h, pure water, Suppl. Fig. 16: xenon flash lamp, 5 μM in PBS buffer 10 mM pH 7.4, r.t., absorbance at 780 nm",42%
same,photodegradation rate of molecule 1 relative to that of 4,"rate constants k from ln(A0/At) = kt, tested in parallel",7.5 fold
